| melting point | Structure (SMILES) |
| --- | --- |
| 278 to 280 °C | O=C1c2ccccc2N(c2ccc(F)cc2)C2=NCCN12 |
| 183 to 184 °C | COc1cc(OCCN2CCOCC2)c(C=CC(=O)c2ccc(C(N)=O)cc2)cc1-c1cccs1 |
| 73 to 74 °C | CN(CCOc1ccc(N)cc1)CCc1ccc(N)cc1 |
| 217 to 220 °C | COC(=O)[C@H]1CC[C@H](NC(=O)c2cc(-c3ccc(C#N)cc3)nn(Cc3ccccc3)c2=O)CC1 |
| 192 to 193 °C | Cc1ccc(S(=O)(=O)Nc2ccc(/C(CN3CCN(C)CC3)=N/O)cc2)cc1 |
| 148 to 150 °C | CS(=O)(=O)N1CCC(C(=O)N(CCCN2CCC(Cc3ccc(F)cc3)CC2)c2ccc(Cl)c(Cl)c2)CC1 |
| 128 to 132 °C | Cn1c(COc2ccc(CC3SC(=O)NC3=O)cc2)nc2ccc(Oc3cccc(NC(=O)NCc4ccc(C(F)(F)F)cc4)c3)cc21 (centres undefined) |
| 128 °C | CCCCc1ccc(OC)c(-c2csc(NC(=O)c3ccc(C(=O)N4CCC(N5CCC(NC(=O)CC)C5)CC4)cc3)n2)c1 (centres undefined) |
| 198 to 199 °C | O=c1ccc(-c2c(-c3ccccc3)nn3ccccc23)nn1C1=C(CCO)CCCC1 |
| 70 to 75 °C | CC1(C)OCc2c1nc1ccccc1c2NCCCN1CCCC1 |
| 186 to 189 °C | COCCN1CCc2ccc(Nc3ncc(Cl)c(Nc4ccccc4C(=O)NC(C)C)n3)cc2CC1 |
| 60 to 62 °C | O=C(O)CCC(=O)OCCc1ccccc1 |
| 227 to 229 °C | CN(CCOc1ccc(C=C2SC(=O)NC2=O)cc1)c1nc2ccccc2o1 |
| 132 to 134 °C | COc1cc2c(cc1O)CCN(Cc1cccc(C(C)=O)c1)C2 |
| 261 to 262 °C | CN1CCN(c2cccc3c2C[C@H](NC(=O)c2ccc(-c4ccc(O)cc4)cc2)CC3)CC1 |
| 229 to 230 °C | O=C(CCc1nc2ccccc2s1)Nc1cc(N2CC(c3ccccc3)OC2=O)ccn1 (centres undefined) |
| 214 to 217 °C | Cc1c(C=C2CCc3cc4ccccc4n3C2=O)ncn1C(c1ccccc1)(c1ccccc1)c1ccccc1 |

| melting point | Structure (SMILES) |
| --- | --- |
| 218 to 221 °C | COc1ccccc1NC(=O)Nc1nc(Nc2ccccc2-c2ccccc2)nc(N(CCC(=O)O)Cc2cccc3ccccc23)n1 |
| 136 to 142 °C | COc1ccc(S(=O)(=O)N(Cc2ccccc2)C2(C(=O)NO)CCN(Cc3ccccc3)CC2)cc1 |
| 91 to 92 °C | COc1ccccc1NC(=O)Nc1nc(N2CCCCC2)nc(N(CCC(=O)O)Cc2cccc(C)c2)n1 |
| 108 to 110 °C | Fc1ccc(-n2ccc3cc(-c4cccnc4)ccc32)cc1 |
| 140 to 141 °C | Cc1ccc(OCCN2CCN(c3nc(N)nc(-c4cc(Cl)ccc4Cl)n3)CC2)cc1 |
| 208 to 210 °C | COc1c(-c2ccccc2C)c(=O)[nH]c2ccccc12 |
| 69 to 71 °C | CCOc1nc(NCc2ccco2)nc(Nc2cccc(CN3CCOCC3)c2)n1 |
| 124 to 126 °C | O=C(O)C(=O)c1ccc(OCCOc2ccc(Oc3ccccc3)cc2)cc1 |
| 126 to 128 °C | NC(=O)N(O)CC=Cc1ccc(Oc2ccccc2)o1 |
| 165 to 167 °C | Cc1c(CN2CCN(c3cccc(C(F)(F)F)c3)CC2)cc(-c2ccc(Cl)cc2)n1-c1ccc(Cl)cc1 |
| 140 to 142 °C | COC(=O)c1ccccc1NC(=O)CNc1ccccc1 |
| 120 to 122 °C | CC(CCc1ccccc1)NC(CO)C(O)c1ccc(S(C)(=O)=O)cc1 (centres undefined) |
| 184 to 186 °C | COc1ccc(S(=O)(=O)N(Cc2ccccc2)c2c(C(=O)NO)cnc3c2c(C)nn3C)cc1 |
| 226 °C | NS(=O)(=O)c1cccc(-c2cccc(-c3nc(-c4ccc(Cl)s4)cc(C(F)(F)F)n3)c2)c1 |
| 165 to 169 °C | CC(C)C[C@H](NC(=O)c1ccc(C(=N)N)cc1)C(=O)N1CCc2nn(CC(=O)O)cc2C1 |
| 222 to 224 °C | O=C(Nc1nnn(CC2CC2)n1)C1c2ccccc2Oc2ccccc21 |
| 71 to 73 °C | CCOC(=O)CN1Cc2ccccc2CC(N)C1=O (centres undefined) |

The remaining lines, values behind:

| Structure (SMILES) | melting point |
| --- | --- |
| CCCc1c(O)cc(O)c(C)c1C(=O)OC | 88 to 91 °C |
| Cc1nc2ccc(F)cc2c(=O)n1-c1ccccc1Cl | 137 to 138 °C |
| CN(CS(C)(=O)=O)C(=O)Nc1ccc(Cl)c(Cl)c1 | 159 °C |
| CCOC(=O)C1CCN(c2ccc(N)cc2C#N)CC1 | 98 °C |
| COc1cccc2c1nc(C(F)F)n2-c1nc(C2CCCN(C(=O)OC(C)(C)C)C2)nc(N2CCOCC2)n1 (centres undefined) | 200 to 202 °C |
| Cc1cc(C#N)cc(C(=O)NC(C)C2CC2)c1NC(=O)c1cc(Br)nn1-c1ncccc1Cl (centres undefined) | 244 to 245 °C |
| CC(O)C(=O)c1ccc(F)cc1F (centres undefined) | 49 to 51 °C |
| CC12CCC(C1)C1(C)Oc3ccc(Br)cc3C21C (centres undefined) | 120 °C |
| Clc1ccc2c(c1)C(c1ccccc1Cl)=CCc1nnc(Br)n1-2 | 234 °C |
| CCOC(=O)C(=CNc1ccc(OCC)nc1)C(=O)OCC | 68 to 71 °C |
| O=[N+]([O-])c1c(Br)nc2ccc(Cl)cc2c1C(F)(F)F | 120 °C |
| CCCCCCCCCCCCCCCCCCC(CO)CC1(C)OCCO1 (centres undefined) | 34 to 35 °C |
| CCCOc1ccc(F)cc1C(=O)O | 76 to 78 °C |
| CCOC(=O)c1c(C(C)C)c2n(c1-c1ccc(F)cc1)CCCC2 | 76 to 78 °C |
| N#Cc1ccc(-c2ccc(OC3SCC(O)C(O)C3O)cn2)cn1 (centres undefined) | 167 °C |
| CC(C)c1noc(-c2ncn3c4cccc(Cl)c4c(=O)n(C)c23)n1 | 209 °C |
| Cc1nc(CC2OC(CO)C(O)C2O)n2nc(N(C)C)ccc12 (centres undefined) | 231 to 232 °C |
| CCNC(=O)c1c(Cl)cccc1OC(C)(C)C | 126 to 127 °C |
| O=C(O)c1cccc(CN2CCC(c3cn(Cc4ccco4)c4ccccc34)CC2)c1 | 154 to 155 °C |
| CCOC(=O)CCC(=O)Oc1cc([N+](=O)[O-])cc([N+](=O)[O-])c1OC(=O)CCC(=O)OCC | 60 to 63 °C |
| CCCCCCCNC(=O)Oc1ccc2c(c1)CCCN2 | 67 °C |
| CCOC(=O)CSC1=CCC2C3CCC4=CC(=O)C=CC4(C)C3(F)C(O)CC12C (centres undefined) | 144 to 145 °C |

| Structure (SMILES) | melting point |
| --- | --- |
| COC(=O)[C@@]12CO[C@@H](C(C)(C)C)N1C(=O)[C@@H](C)C2 | 107 to 108 °C |
| CC(C)NC(=N)NC(=N)NOCCCOc1ccc(Cl)cc1 | 98 to 100 °C |
| COc1cccc(C=CC(=O)NC2CCNC(=O)C2)c1OC (centres undefined) | 164 to 166 °C |
| Cc1ncc2c(n1)-c1ccc(Cl)cc1C(c1ccccc1F)=NC2 | 104 to 107 °C |
| COc1cc(-c2ccnc(Nc3cccc(OC(F)(F)C(F)F)c3)n2)cc(OC)c1OC | 132 °C |
| CCCCCCCCCC1COC(c2ccc(CCCCCCC)c(F)c2F)OC1 (centres undefined) | 40.4 °C |
| Cc1nc2cc3c(cc2c(=O)[nH]1)C(N(C)c1ccc(C(=O)NC(CCc2nnn[nH]2)C(=O)O)c(F)c1)CC3 (mixture of isomers) | 203 to 205 °C |
| Cc1cccc2nc3c(cc12)oc1cccc(Cl)c13 | 169 to 172 °C |
| CC(C)C1(n2cccn2)CN(C(=O)O)N=C1c1ccc(F)cc1 (centres undefined) | 125 °C |
| Cc1cc(S)n2nc(N)nc2n1 | > 300 °C |
| CCC1(CCCCl)C(=O)Nc2ccc(Cl)cc21 (centres undefined) | 105 to 107 °C |
| CN1CCN=C(c2ccc([N+](=O)[O-])cc2)C1=O | 191 to 192 °C |
| CCOC(=O)c1cc2c(OCC(O)CNC(C)(C)C)cc(C)cc2[nH]1 (centres undefined) | 181 to 183 °C |
| CN(N)C(=S)Nc1ccc(F)cc1 | 148 to 150 °C |
| Oc1ccc(-c2nsnc2Cl)cc1 | 135 to 136 °C |
| Cc1ccccc1C(=O)CN1C(=O)C(NC(=O)Nc2cccc(C(=O)O)c2)N=C(c2ccccc2F)c2cccc(C)c21 (centres undefined) | 168 to 176 °C |
| CCCCOC(=O)C(Cl)=Cc1cc(-n2c(=O)cc(C(F)(F)F)n(C)c2=O)ccc1Cl | 109 to 110 °C |
| CN1C(=S)N(c2ccc(C#N)c(C(F)(F)F)c2)C(=O)C1(C)C | 171 °C |
| C=CCc1cc(Cc2cnc(N)nc2N)c2ccc(C)nc2c1OC | 219 to 222 °C |
| Cc1cnnc(-c2cccc(C(F)(F)F)c2)c1 | 114 to 116 °C |
| O=C1c2cc(F)ccc2CCc2cccnc21 | 78 to 81 °C |
| NC(=O)Cn1c(-c2ccc(Br)cc2)nc2cccnc21 | > 250 °C |

| Structure (SMILES) | melting point |
| --- | --- |
| CC1(C)C(C)(C)C1(Cl)c1ccccn1 | 100 to 102 °C |
| Nc1cc(Cl)c([N+](=O)[O-])cc1OC(=O)c1cccc(C(=O)Oc2cc([N+](=O)[O-])c(Cl)cc2N)c1 | 129 to 130 °C |
| O=S(=O)(c1cnn(-c2c(Cl)cc(C(F)(F)F)cc2Cl)c1-n1cccn1)C(F)(F)F | 127 to 133 °C |
| COC(=O)c1cc(Br)ccc1Cl | 43 to 44 °C |
| CCN(CC)c1cccc(-c2ccnc3c(C(=O)c4cccs4)cnn23)c1 | 102 to 104 °C |
| O=C1CCc2c(-c3ccncc3)sc(-c3ccccc3F)c21 | 133 to 135 °C |
| CCNC(=O)NCCCNn1c(COCC)nc2c(N)nc3ccccc3c21 | 138 to 141 °C |
| CN(C)C(=O)Nc1cccc(Cl)c1 | 138 to 142 °C |
| CCCCC(=O)OC(C)OC(=O)NC1(C(=O)O)CC1 (centres undefined) | 148 to 151 °C |
| COc1cccc(COC(=O)c2ncn3c2[C@@H]2CCN2C(=O)c2c(Cl)cccc2-3)c1 | 126 to 127 °C |
| CCCS(=O)(=O)NC(=N[N+](=O)[O-])NCc1cnc(Cl)s1 | 105 to 107 °C |
| CC(C)c1nc2c(N)nc(-c3ccncc3)nc2[nH]1 | 269 to 272 °C |
| CC1(C)Nc2cc(Cl)ccc2NC1=O | 166 to 170 °C |
| COc1cc(C=O)c(OC)c(C)c1C | 69 to 71 °C |
| CC(C)C1(C)N=C(c2ncc(O)cc2C(=O)O)NC1=O (centres undefined) | 255 to 257 °C |
| CCc1ccc2c(c1)C=Cc1cc(C)ccc1C2c1cn(-c2ccnc(N3CC(C(=O)Nc4nnn[nH]4)C3)n2)c(=O)[nH]c1=O (centres undefined) | 252 °C |
| Cc1ccc(-c2nc(Cc3cccc(Br)c3)c(C)o2)cc1 | 74 to 75 °C |
| CCn1ncc2c(NCC3CCCCC3)c3cc(C(=O)OC)ccc3nc21 | 275 to 277 °C |
| Cc1ccc(S(=O)(=O)C(C)(C)C(=O)C2CCCCC2)cc1 | 123 to 124 °C |
| CC(C)(C)OC(=O)NC[C@H]1CN(c2ccc3c(c2)CCCCC3=O)C(=O)O1 | 155 to 157 °C |
| COCCN(C)C(=O)NCCNCC(O)COc1ccc(OCCOCC(C)C)cc1 (centres undefined) | 60 to 63 °C |

— a melting point compilation (Tetko et al.; mined from patent text by program, amines drawn as free bases though some values may be those of a salt)
